Measurements from patent US6355799B1, “Substituted benzene compounds, process for their preparation, and herbicidal and defoliant compositions containing them” (ISK Americas Incorporated, priority 1997, dated 2002).

Columns and labels:
Format in all cases: in vivo
[1] = system: redroot pigweed (Amaranthus retroflexus, AMARE); assay: Pre-emerge test, greenhouse herbicide activity screening; details: rated 14 days after application, 0 = no damage, 100 = complete death
Procedure, shortened: (§1)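 Sandy loam pots; pre-emerge: sown 1 d pre-spray, surface-watered after, then bottom-watered. Post-emerge: sown 8–21 d before, 2–3 leaf stage, + 0.25% v/v NIS, bottom-watered. Acetone, 187 l/ha track spray, 15–1000 g ai/ha. 0–100 injury score, day 14.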

[2] = system: barnyardgrass (Echinochloa crus-galli, ECHCG); assay: Post-emerge test, greenhouse herbicide activity screening; details: post-emerge, 14 days after application, rating scale 0-100
Procedure, shortened: as §1

[3] = system: sicklepod (Cassia obtusifolia, CASOB); assay: as above; details: post-emerge, 14 days after application, rating scale 0-100
Procedure, shortened: as §1

[4] = system: redroot pigweed (Amaranthus retroflexus, AMARE); assay: as above; details: post-emerge, 14 days after application, rating scale 0-100
Procedure, shortened: as §1

[5] = system: johnsongrass (Sorghum halepense, SORHA); assay: as above; details: post-emerge, 14 days after application, rating scale 0-100
Procedure, shortened: as §1

[6] = system: green foxtail (Setaria viridis, SETVI); assay: as above; details: post-emerge, 14 days after application, rating scale 0-100
Procedure, shortened: as §1

[7] = system: lambsquarters (Chenopodium album, CHEAL); assay: as above; details: post-emerge, 14 days after application, rating scale 0-100
Procedure, shortened: as §1

[8] = system: common ragweed (Ambrosia artemisizfolia L., AMBEL); assay: as above; details: post-emerge, 14 days after application, rating scale 0-100
Procedure, shortened: as §1

[9] = system: velvetleaf (Abutilon theophrasti, ABUTH); assay: as above; details: post-emerge, 14 days after application, rating scale 0-100
Procedure, shortened: as §1

[10] = system: ivyleaf morningglory (Ipomoea hederacea, IPOHE); assay: as above; details: post-emerge, 14 days after application, rating scale 0-100
Procedure, shortened: as §1

[11] = system: large crabgrass (Digitaria sanguinalis, DIGSA); assay: as above; details: post-emerge, 14 days after application, rating scale 0-100
Procedure, shortened: as §1

[12] = system: barnyardgrass (Echinochloa crus-galli, ECHCG); assay: Pre-emerge test, greenhouse herbicide activity screening; details: rated 14 days after application, 0 = no damage, 100 = complete death
Procedure, shortened: (§2)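 Plants grown in 10 cm pots of sandy loam mix received acetone-dissolved compounds through a moving flat-fan nozzle. Doses ranged from 15 to 1000 g ai/ha. Pre-emerge pots were seeded one day earlier, post-emerge pots 8–21 days earlier. Fourteen days on, each pot was graded 0–100 for damage.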

[13] = system: sicklepod (Cassia obtusifolia, CASOB); assay: as above; details: rated 14 days after application, 0 = no damage, 100 = complete death
Procedure, shortened: as §2

[14] = system: johnsongrass (Sorghum halepense, SORHA); assay: as above; details: rated 14 days after application, 0 = no damage, 100 = complete death
Procedure, shortened: as §2

[15] = system: green foxtail (Setaria viridis, SETVI); assay: as above; details: rated 14 days after application, 0 = no damage, 100 = complete death
Procedure, shortened: as §2

[16] = system: lambsquarters (Chenopodium album, CHEAL); assay: as above; details: rated 14 days after application, 0 = no damage, 100 = complete death
Procedure, shortened: as §2

[17] = system: common ragweed (Ambrosia artemisizfolia L., AMBEL); assay: as above; details: rated 14 days after application, 0 = no damage, 100 = complete death
Procedure, shortened: as §2

[18] = system: velvetleaf (Abutilon theophrasti, ABUTH); assay: as above; details: rated 14 days after application, 0 = no damage, 100 = complete death
Procedure, shortened: as §2

[19] = system: ivyleaf morningglory (Ipomoea hederacea, IPOHE); assay: as above; details: rated 14 days after application, 0 = no damage, 100 = complete death
Procedure, shortened: as §2

[20] = system: large crabgrass (Digitaria sanguinalis, DIGSA); assay: as above; details: rated 14 days after application, 0 = no damage, 100 = complete death
Procedure, shortened: as §2

[21] = system: upland rice (Oryza sp., var. Tebonnet, RICE); assay: Post-emerge test, crop safety; details: post-emerge, 14 days after application, rating scale 0-100
Procedure, shortened: (§3)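 Each test used a mechanized track sprayer delivering 187 l/ha of acetone solution at 15–1000 g ai/ha. Post-emerge foliage at 2–3 leaves was treated with added 0.25% v/v non-ionic surfactant and bottom-watered only. Injury was assessed on day 14, where 100 means total kill.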

[22] = system: field corn (Zea mays L., var. Dekalb 535, CORN); assay: Post-emerge test, crop safety; details: post-emerge, 14 days after application, rating scale 0-100
Procedure, shortened: as §3

[23] = system: upland rice (Oryza sp., var. Tebonnet, RICE); assay: Pre-emerge test, crop safety; details: rated 14 days after application, 0 = no damage, 100 = complete death
Procedure, shortened: (§4)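 Compounds in acetone were track-sprayed at 15-1000 g ai/ha (187 l/ha) on sandy loam pots: pre-emerge one day after seeding, post-emerge at 2-3 leaf stage with 0.25% v/v non-ionic surfactant. Phytotoxicity was rated 14 days later on a 0 (no damage) to 100 (complete death) scale.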

[24] = system: field corn (Zea mays L., var. Dekalb 535, CORN); assay: Pre-emerge test, crop safety; details: rated 14 days after application, 0 = no damage, 100 = complete death
Procedure, shortened: as §4

COc1c(Cl)cc(F)c(-n2c(=O)cc(C(F)(F)F)n(C)c2=O)c1NC(=O)c1ccc(F)c(F)c1 [2-48]
99: Pre-emerge phytotoxicity rating (0-100), crop damage, RICE ([23]; 250 g ai/ha) | Pre-emerge phytotoxicity rating (0-100), crop damage, CORN ([24]; 250 g ai/ha)
95: phytotoxicity rating AMARE ([4]; 63 g ai/ha) | phytotoxicity rating CHEAL ([7]; 63 g ai/ha) | Pre-emerge Herbicidal Activity, phytotoxicity rating (0-100), SORHA ([14]; 63 g ai/ha) | Pre-emerge Herbicidal Activity, phytotoxicity rating (0-100), SORHA ([14]; 250 g ai/ha) | Pre-emerge Herbicidal Activity, phytotoxicity rating (0-100), DIGSA ([20]; 63 g ai/ha)
90: Pre-emerge phytotoxicity rating (0-100), crop damage, RICE ([23]; 63 g ai/ha) | Pre-emerge phytotoxicity rating (0-100), crop damage, CORN ([24]; 63 g ai/ha)
70: phytotoxicity rating SETVI ([6]; 250 g ai/ha) | phytotoxicity rating CORN ([22]; 250 g ai/ha)
85: phytotoxicity rating AMBEL ([8]; 63 g ai/ha) | Pre-emerge Herbicidal Activity, phytotoxicity rating (0-100), ECHCG ([12]; 63 g ai/ha)
60: phytotoxicity rating SORHA ([5]; 250 g ai/ha)
20: phytotoxicity rating SETVI ([6]; 63 g ai/ha) | phytotoxicity rating DIGSA ([11]; 250 g ai/ha)
80: phytotoxicity rating ECHCG ([2]; 250 g ai/ha) | phytotoxicity rating RICE ([21]; 63 g ai/ha)
100: Pre-emerge Herbicidal Activity, phytotoxicity rating (0-100), AMARE ([1]; 63 g ai/ha) | Pre-emerge Herbicidal Activity, phytotoxicity rating (0-100), AMARE ([1]; 250 g ai/ha) | phytotoxicity rating CASOB ([3]; 250 g ai/ha) | phytotoxicity rating AMARE ([4]; 250 g ai/ha) | phytotoxicity rating CHEAL ([7]; 250 g ai/ha) | phytotoxicity rating AMBEL ([8]; 250 g ai/ha) | phytotoxicity rating ABUTH ([9]; 63 g ai/ha) | phytotoxicity rating ABUTH ([9]; 250 g ai/ha) | phytotoxicity rating IPOHE ([10]; 63 g ai/ha) | phytotoxicity rating IPOHE ([10]; 250 g ai/ha) | Pre-emerge Herbicidal Activity, phytotoxicity rating (0-100), ECHCG ([12]; 250 g ai/ha) | Pre-emerge Herbicidal Activity, phytotoxicity rating (0-100), CASOB ([13]; 63 g ai/ha) | Pre-emerge Herbicidal Activity, phytotoxicity rating (0-100), CASOB ([13]; 250 g ai/ha) | Pre-emerge Herbicidal Activity, phytotoxicity rating (0-100), SETVI ([15]; 63 g ai/ha) | Pre-emerge Herbicidal Activity, phytotoxicity rating (0-100), SETVI ([15]; 250 g ai/ha) | Pre-emerge Herbicidal Activity, phytotoxicity rating (0-100), CHEAL ([16]; 63 g ai/ha) | Pre-emerge Herbicidal Activity, phytotoxicity rating (0-100), CHEAL ([16]; 250 g ai/ha) | Pre-emerge Herbicidal Activity, phytotoxicity rating (0-100), AMBEL ([17]; 63 g ai/ha) | Pre-emerge Herbicidal Activity, phytotoxicity rating (0-100), AMBEL ([17]; 250 g ai/ha) | Pre-emerge Herbicidal Activity, phytotoxicity rating (0-100), ABUTH ([18]; 63 g ai/ha) | Pre-emerge Herbicidal Activity, phytotoxicity rating (0-100), ABUTH ([18]; 250 g ai/ha) | Pre-emerge Herbicidal Activity, phytotoxicity rating (0-100), IPOHE ([19]; 63 g ai/ha) | Pre-emerge Herbicidal Activity, phytotoxicity rating (0-100), IPOHE ([19]; 250 g ai/ha) | Pre-emerge Herbicidal Activity, phytotoxicity rating (0-100), DIGSA ([20]; 250 g ai/ha)
86: phytotoxicity rating RICE ([21]; 250 g ai/ha)
50: phytotoxicity rating CASOB ([3]; 63 g ai/ha) | phytotoxicity rating CORN ([22]; 63 g ai/ha)
30: phytotoxicity rating SORHA ([5]; 63 g ai/ha)
0: phytotoxicity rating ECHCG ([2]; 63 g ai/ha) | phytotoxicity rating DIGSA ([11]; 63 g ai/ha)
